From patent publication US4405743A, “Pyrazolylpyrimidine derivatives” (Hokko Chemical Industry Co., Ltd., priority 1981, dated 1983)
Converted amounts (≈) assume the structure as drawn. Where two headings read alike, the source gives them in different places.

Columns and labels:
Cochliobolus miyabeanus [1] = assay: Antimicrobial activity (mycelium growth inhibition, PDA medium); type: cell-based; conditions: Bipolaris oryzae, read-out: ED50 value
Sphaerotheca friliginea = assay: Effect of controlling cucumber powdery mildew, Experimental Example 4; type: in vivo; conditions: sprayed liquid 200 ppm, 10 days after inoculation
Protocol: 10 ml of each of test liquids diluted to a predetermined concentration was sprayed over seedlings of a cucumber plant (variety: Sagami Hanpaku) grown up to the first leaf stage which has been soil cultured in an unglazed pot with a diameter of 9 cm in a green house. After allowing to stand overnight, the seedlings were sprayed for inoculation with a spore suspension of Sphaerotheca friliginea. Ten days after the inoculation, the rate of a lesion area (%) was checked and a control value was evaluated from the following equation. The degree of chemical injury against a cucumber plant was determined in the same manner as in Experimental Example.

[2] = test system: Helminthosporium gramineum; assay: Antimicrobial activity (mycelium growth inhibition, PDA medium); type: cell-based; conditions: 24° C., read-out: ED50 value
Protocol: (§1) Experimental Example 5 (Test for Antimicrobial Activity Against Various Plant Phathogenic Fungi)
(§2) 1 ml of an acetone solution of each of test compounds and 20 ml of the PDA medium (50° C.) to prepare media containing the chemical in different concentrations, followed by charging into a petri dish with a diameter of 9 cm where it was solidified flat. On the central portion of the chemical-containing medium was inoculated a fungus-containing medium a piece of ager black-containing mycelia which was obtained by punching by means of a cork borer the tip portion of mycelia of each test fungus which had been cultured in advance in the PDA medium, followed by cultivating at 24° C. Two to six days after the cultivation, the diameter of the mycelia was measured and mycelium growth inhibiting rate was calculated from a comparison with that of a non-treated plot. The mycelium growth inhibiting rate was plotted on a logarithmic probability paper to determine an ED50 value.

Pellicularia sasakii = assay: as above; type: cell-based; conditions: 24° C., read-out: ED50 value
Protocol: as §1, §2

Curvularia sp. = assay: as above; type: cell-based; conditions: 24° C., read-out: ED50 value
Protocol: as §1, §2

Fusarium nivale = assay: as above; type: cell-based; conditions: Microdochium nivale, 24° C., read-out: ED50 value
Protocol: as §1, §2

Phoma lingam = assay: as above; type: cell-based; conditions: Plenodomus lingam, 24° C., read-out: ED50 value
Protocol: as §1, §2

Mycosphaerella melonis = assay: as above; type: cell-based; conditions: 24° C., read-out: ED50 value
Protocol: as §1, §2

Endothia parasitica = assay: as above; type: cell-based; conditions: Cryphonectria parasitica, 24° C., read-out: ED50 value
Protocol: as §1, §2

Sclerotinia sclerotiorum = assay: as above; type: cell-based; conditions: 24° C., read-out: ED50 value
Protocol: as §1, §2

Botrytis cinerea = assay: as above; type: cell-based; conditions: 24° C., read-out: ED50 value
Protocol: as §1, §2

Diaporthe citri = assay: as above; type: cell-based; conditions: 24° C., read-out: ED50 value
Protocol: as §1, §2

Glomerella cingulata = assay: as above; type: cell-based; conditions: Colletotrichum gloeosporioides, 24° C., read-out: ED50 value
Protocol: as §1, §2

Penicillium digitatum = assay: as above; type: cell-based; conditions: 24° C., read-out: ED50 value
Protocol: as §1, §2

Phizoctonia solani = assay: as above; type: cell-based; conditions: 24° C., read-out: ED50 value
Protocol: as §1, §2

Alternaria padwikii = assay: as above; type: cell-based; conditions: 24° C., read-out: ED50 value
Protocol: as §1, §2

Sclerotinia fructigena = assay: as above; type: cell-based; conditions: 24° C., read-out: ED50 value
Protocol: as §1, §2

rice plant [3] = conditions: blast prevention test, 200 ppm
Cochliobolus miyabeanus [4] = assay: Effect of controlling rice brown spot, Experimental Example 3; type: in vivo, Cochliobolus miyabeanus on rice plant (variety: Asahi); conditions: sprayed liquid 500 ppm, 5 days after inoculation
Pyricularia oryzae [5] = assay: microbe, parasite or virus in culture; type: cell-based; conditions: read-out: ED50 value
Pyricularia oryzae [6] = type: in vivo, Pyricularia oryzae on rice plant (variety: Asahi); conditions: rice blast, curative treatment; sprayed liquid 200 ppm; 5 days after spraying
cucumber plant = conditions: in vivo
rice plant [7] = conditions: in vivo
rice plant [8] = conditions: blast curative test, 200 ppm
Pyricularia oryzae [9] = type: in vivo, Pyricularia oryzae on rice plant (variety: Asahi); conditions: rice blast, prevention; 200 ppm; 5 days after inoculation

Row | SMILES | Control Value (Sphaerotheca friliginea) | Degree of chemical injury (rice plant [3]) | Control Value (Cochliobolus miyabeanus [4]) | Control Value (Pyricularia oryzae [6]) | Degree of chemical injury (cucumber plant) | Degree of chemical injury (rice plant [7]) | Degree of chemical injury (rice plant [8]) | Control Value (Pyricularia oryzae [9]) | further results
1 | Cc1cc(C)n(-c2nccc(Sc3ccccc3)n2)n1 [Compound 4] | 90% | 0 | 85% | 100% | 0 | 0 | 0 | 100% | IC50 (Cochliobolus miyabeanus [1]): 4.6 µg/mL (≈ 16.3 µM); IC50 [2]: 2.4 µg/mL (≈ 8.5 µM); IC50 (Pellicularia sasakii): 1.2 µg/mL (≈ 4.25 µM); IC50 (Curvularia sp.): 0.7 µg/mL (≈ 2.48 µM); IC50 (Fusarium nivale): 5.3 µg/mL (≈ 18.8 µM); IC50 (Phoma lingam): 2.1 µg/mL (≈ 7.44 µM); IC50 (Mycosphaerella melonis): 5.2 µg/mL (≈ 18.4 µM); IC50 (Endothia parasitica): 1.9 µg/mL (≈ 6.73 µM); IC50 (Sclerotinia sclerotiorum): 3.2 µg/mL (≈ 11.3 µM); IC50 (Botrytis cinerea): 6.5 µg/mL (≈ 23 µM); IC50 (Diaporthe citri): 2.7 µg/mL (≈ 9.56 µM); IC50 (Glomerella cingulata): 4.1 µg/mL (≈ 14.5 µM); IC50 (Penicillium digitatum): 1.3 µg/mL (≈ 4.6 µM); IC50 (Phizoctonia solani): 1.1 µg/mL (≈ 3.9 µM); IC50 (Alternaria padwikii): 1.2 µg/mL (≈ 4.25 µM); IC50 (Sclerotinia fructigena): 0.4 µg/mL (≈ 1.42 µM); IC50 (Pyricularia oryzae [5]): 0.1 µg/mL (≈ 0.354 µM)
2 | Cc1cc(Oc2ccc(Cl)cc2Cl)nc(-n2nc(C)cc2C)n1 [Compound 23] | 82% | 0 | 84% | 86% | 0 | 0 | 0 | 100% | –
3 | Cc1ccc(Oc2cc(C)nc(-n3nc(C)cc3C)n2)c(C)c1 [Compound 27] | – | 0 | – | 100% | – | – | 0 | 100% | IC50 (Cochliobolus miyabeanus [1]): 2.2 µg/mL (≈ 7.13 µM); IC50 [2]: 3.6 µg/mL (≈ 11.7 µM); IC50 (Pellicularia sasakii): 1 µg/mL (≈ 3.24 µM); IC50 (Curvularia sp.): 1.6 µg/mL (≈ 5.19 µM); IC50 (Fusarium nivale): 2.8 µg/mL (≈ 9.08 µM); IC50 (Phoma lingam): 3.7 µg/mL (≈ 12 µM); IC50 (Mycosphaerella melonis): 4.6 µg/mL (≈ 14.9 µM); IC50 (Endothia parasitica): 6.3 µg/mL (≈ 20.4 µM); IC50 (Sclerotinia sclerotiorum): 4.8 µg/mL (≈ 15.6 µM); IC50 (Botrytis cinerea): 9.8 µg/mL (≈ 31.8 µM); IC50 (Diaporthe citri): 2.9 µg/mL (≈ 9.4 µM); IC50 (Glomerella cingulata): 6.7 µg/mL (≈ 21.7 µM); IC50 (Penicillium digitatum): 1.2 µg/mL (≈ 3.89 µM); IC50 (Phizoctonia solani): 1.1 µg/mL (≈ 3.57 µM); IC50 (Alternaria padwikii): 1.9 µg/mL (≈ 6.16 µM); IC50 (Sclerotinia fructigena): 1.4 µg/mL (≈ 4.54 µM); IC50 (Pyricularia oryzae [5]): 0.02 µg/mL (≈ 0.0649 µM)
4 | Cc1ccc(C)c(Oc2cc(C)nc(-n3nc(C)cc3C)n2)c1 [Compound 28] | 100% | 0 | 100% | 98% | 0 | 0 | 0 | 100% | –
5 | Cc1cc(C)cc(Oc2cc(C)nc(-n3nc(C)cc3C)n2)c1 [Compound 29] | 100% | 0 | 100% | 100% | 0 | 0 | 0 | 100% | –
6 | Cc1cc(C)c(C)c(Oc2cc(C)nc(-n3nc(C)cc3C)n2)c1 [Compound 30] | 92% | 0 | 87% | 100% | 0 | 0 | 0 | 100% | –
7 | CCOc1nc(-n2nc(C)cc2C)ncc1C [Compound 32] | 93% | 0 | 76% | 93% | 0 | 0 | 0 | 100% | IC50 (Cochliobolus miyabeanus [1]): 3.8 µg/mL (≈ 16.4 µM); IC50 [2]: 7.5 µg/mL (≈ 32.3 µM); IC50 (Pellicularia sasakii): 1.5 µg/mL (≈ 6.46 µM); IC50 (Curvularia sp.): 1.6 µg/mL (≈ 6.89 µM); IC50 (Fusarium nivale): 2.3 µg/mL (≈ 9.9 µM); IC50 (Phoma lingam): 5.3 µg/mL (≈ 22.8 µM); IC50 (Mycosphaerella melonis): 1.8 µg/mL (≈ 7.75 µM); IC50 (Endothia parasitica): 7.5 µg/mL (≈ 32.3 µM); IC50 (Sclerotinia sclerotiorum): 5.5 µg/mL (≈ 23.7 µM); IC50 (Botrytis cinerea): 13.8 µg/mL (≈ 59.4 µM); IC50 (Diaporthe citri): 4 µg/mL (≈ 17.2 µM); IC50 (Glomerella cingulata): 7 µg/mL (≈ 30.1 µM); IC50 (Penicillium digitatum): 0.6 µg/mL (≈ 2.58 µM); IC50 (Phizoctonia solani): 2.4 µg/mL (≈ 10.3 µM); IC50 (Alternaria padwikii): 1.2 µg/mL (≈ 5.17 µM); IC50 (Sclerotinia fructigena): 0.9 µg/mL (≈ 3.87 µM); IC50 (Pyricularia oryzae [5]): 0.8 µg/mL (≈ 3.44 µM)
8 | CCSc1nc(-n2nc(C)cc2C)ncc1C [Compound 33] | 94% | 0 | 82% | 82% | 0 | 0 | 0 | 100% | –
9 | Cc1cc(C)n(-c2ncc(C)c(Oc3ccccc3)n2)n1 [Compound 34] | 100% | 0 | 98% | 100% | 0 | 0 | 0 | 92% | –
10 | CCOc1nc(-n2nc(C)cc2C)nc(C)c1C [Compound 36] | 93% | 0 | 100% | 99% | 0 | 0 | 9 | 100% | –
11 | CCSc1nc(-n2nc(C)cc2C)nc(C)c1C [Compound 37] | 100% | 0 | 93% | 81% | 0 | 0 | 0 | 100% | –
12 | Cc1cc(C)n(-c2nc(C)c(C)c(Sc3ccccc3)n2)n1 [Compound 39] | 100% | 0 | 78% | 100% | 0 | 0 | 0 | 100% | –
13 | CCCc1c(C)nc(-n2nc(C)cc2C)nc1OC [Compound 40] | 97% | 0 | 81% | 100% | 0 | 0 | 0 | 100% | –
14 | CCCCc1c(C)nc(-n2nc(C)cc2C)nc1Oc1ccccc1 [Compound 43] | 82% | 0 | 94% | 86% | 0 | 0 | 0 | 100% | –
15 | CCCCc1c(C)nc(-n2nc(C)cc2C)nc1Sc1ccccc1 [Compound 44] | 94% | 0 | 91% | 92% | 0 | 0 | 0 | 100% | –
16 | CCCCCCc1cc(SCC)nc(-n2nc(C)cc2C)n1 [Compound 45] | 91% | 0 | 88% | 90% | 0 | 0 | 0 | 92% | –
17 | CCCCCCc1cc(Sc2ccccc2)nc(-n2nc(C)cc2C)n1 [Compound 46] | 83% | 0 | 99% | 99% | 0 | 0 | 0 | 84% | –
18 | CCCCCCc1cc(Oc2ccc(Cl)cc2)nc(-n2nc(C)cc2C)n1 [Compound 47] | 79% | 0 | 90% | 100% | 0 | 0 | 0 | 100% | –
